In patent US20230333087A1, “METHODS FOR MONITORING PATIENT RESPONSE TO TREATMENT OF RETINAL OXIDATIVE DISEASES” (BioJiva LLC, priority 2022, published 2023):

Tests used:
retinal function = assay: Electroretinography; format: in vivo, C57BL/6J mice
Procedure: Electroretinography was conducted on mice fed with D-DHA or natural DHA for 4 weeks to evaluate retinal function. […] Thus, using this measure, incorporation of D-DHA had no impact on retinal function (FIG. 7A). […] Toluidine blue staining was performed on plastic sections to examine retinal histology.
Mice were dark adapted overnight and anesthetized with the same procedure. The electroretinograms were recorded with an Espion E3 system (Diagnosys LLC, Lowell, MA) with a ganzfeld Color Dome stimulator as previously described. All electroretinography were performed at the same time of day.

[1] = Ocular D-DHA accretion and elimination (0.5% D-DHA diet 77 days, DHA wash-out 73 days); format: in vivo, C57BL/6J mice
From the text: To determine the pharmacokinetics of ocular D-DHA uptake, incorporation and elimination from the neural retina and RPE/choroid/sclera, twelve-week-old C57BL/6J mice were fed a 0.5% D-DHA containing diet (0.5 g D-DHA/100 g food, Table 3) for 77 days followed by an additional 73-day wash-out phase with DHA. At 4 weeks, >55% of the DHA in the retina was D-DHA rising to >60% at 5 weeks (FIG. 6A). At similar time points, D-DHA in the RPE/choroid/sclera was >80%. […] Based on the accretion and elimination data, two-month-old mice were fed with diets containing either D-DHA or natural DHA control for 1 week, 2 weeks, 3 weeks, and 4 weeks before the IVT injection of iron and saline control (FIG. 6B). In order to better approximate typical DHA doses in human prescription omega-3 supplements (e.g. 1,500 mg/day DHA in Lovaza), the D-DHA and DHA experimental mouse diets were adjusted to 0.25% instead of 0.5% for most of the study. On a 0.25% D-DHA diet, retinal D-DHA levels exceeded 50% at five weeks (52.2±1.5% and 55% of total DHA by our GC- and LC- based MS methods, respectively), regardless of whether eyes were injected with iron or control saline (Table 3).
Eleven-week-old C57BL/6J mice were purchased from Jackson Laboratory (Bar Harbor, ME) and housed in 20-25 lux light conditions under 12 h day/night cycle in the Dean McGee Eye Institute Animal Research Facility at the University of Oklahoma Health Sciences Center, Oklahoma City, OK. One week after acclimatization to the vivarium with ad libitum access to laboratory rodent chow and water the animals were assigned to experimental groups. To determine ocular D-DHA accretion, the mice were switched from the laboratory rodent diet to the experimental D-DHA supplemented diet containing 0.5% D-DHA plus 6.5% high oleic soybean oil (w/w) in AIN93G^51 (Research Diet, Inc. New Brunswick, NJ). The diets were vacuum packaged and stored at - 20° C. Food was replaced three times a week with fresh food ad libitum that is stored in 4° C. after it is taken from - 20° C. Based on previous estimated retina accretion kinetics, retina, optic nerve and eye cups containing sclera, retinal pigment epithelium-choroid (RPE-choroid) were dissected from 6 mice (3 females and 3 males) at different time points during eleven weeks of D-DHA feeding. The tissues were snap frozen in liquid nitrogen, and stored in -80° C. until fatty acid analyses. After eleven weeks (77 days) on D-DHA diet, the animals were switched to the washout diet containing 0.5% DHA plus 6.5% high oleic soybean oil (w/w) in AIN93G and maintained on this diet until euthanasia at three different time points up to 73 days, when tissues were harvested for fatty acid analysis. All animal procedures were approved by the University of Oklahoma Health Sciences Center Institutional Animal Care and Use Committee.
Three types of mass spectrometric analysis were performed to confirm repeatability of results. In the first, lipids were extracted from retinas by a modified Folch method (CHCl3/CH3OH, 2:1). derivatized to fatty acid methyl esters (FAME), and analyzed by high resolution capillary gas chromatography and specialized chemical ionization tandem mass spectrometry. Baseline resolved DHA and D-DHA total ion signal were integrated, and the proportions of D-DHA/total DHA were calculated. […] Lipids were extracted and saponified, and analyzed by ESI-LC/MS on a 4000 QTrap (Sciex) operating in enhanced negative mode over an m/z range of 320 - 345 and a scan rate of 250 /sec. […]

rod-b wave, rod-a wave and cone-b wave amplitudes (retinal function; 4 weeks diet, mice not given IVT injections, compared to natural DHA): no significant difference
% of the DHA in the retina that was D-DHA ([1]; 0.5% D-DHA diet, 4 weeks): > 55%
% of the DHA in the retina that was D-DHA ([1]; 0.5% D-DHA diet, 5 weeks): > 60%
D-DHA in the RPE/choroid/sclera ([1]; 0.5% D-DHA diet, similar time points (4-5 weeks)): > 80%
washout in the RPE/choroid/sclera ([1]; DHA wash-out diet, compared with retina): more rapid than retina
uptake and elimination kinetics ([1]; neural retina and RPE/choroid/sclera): classic first order kinetics
SMILES: [2H]C([2H])(/C=C\CC)/C=C\C([2H])([2H])/C=C\C([2H])([2H])/C=C\C([2H])([2H])/C=C\C([2H])([2H])/C=C\CCC(=O)OCC [D-DHA, 6,6,9,9,12,12,15,15,18,18-D10-(4Z,7Z,10Z,13Z,16Z, 19Z)-docosa 4,7,10,13,16, 19-hexaenoic acid ethyl ester]
rod b-wave, rod a-wave and cone-b wave amplitudes (retinal function; iron injected eyes, ≥50% retinal D-DHA, 1 week after injection, compared to DHA plus iron): marked protection
